{
  "source": "patent US8580519B2",
  "about": "“Use of plasma HSP90 related to malignancy” (University of Maryland, Baltimore, priority 2006, dated 2013)",
  "key": {"[1]": {"details": "preclinical toxicology studies; cited from earlier work"}, "MEXF276L cells [2]": {"system": "MEXF276L cells", "experiment": "Hsp90 isoforms and MMP2 in serum-free conditioned medium, Western blot", "format": "cell-based, human", "experimental": "In addition, levels of matrix metalloprotease 2 (MMP2, FIG. 3B), an extracellular client protein of Hsp90α were analyzed."}, "MEXF276L cells [3]": {"system": "MEXF276L cells", "experiment": "Immunofluorescence localization of Hsp90 isoforms α and β", "format": "cell-based, human", "details": "sensitive melanoma cells exposed to 17AAG, time course", "experimental": "(§1) Cells were treated at the respective concentrations that cause total growth inhibition (TGI) (Burger et al., 2005). […] Co-localization of proteins results in the occurrence of orange to yellow colors in merged pictures. Bar=15 μm."}, "MEXF276L cells [4]": {"system": "MEXF276L cells", "experiment": "Cell cycle distribution, apoptotic sub G1 fraction", "format": "cell-based, human", "details": "17AAG at TGI"}, "[5]": {"system": "MEXF276L and MEXF514L cells", "experiment": "Hsp90 expression in whole cell lysates of 17AAG sensitive and resistant melanoma cell lines", "format": "cell-based, human", "details": "17AAG at TGI; responsive MEXF276L, not resistant MEXF514L", "experimental": "as §1"}, "MEXF276L xenografts": {"system": "MEXF276L xenografts", "details": "tumor-bearing mice, MEXF276L and MEXF514L, 24, 48, 72 hrs after 60 mg/kg/d", "experimental": "Approximately 100 μl blood was available through tail vein puncture, the 72 hr time point was collected by exsanguinations/cardiac puncture."}, "Hsp90α": {"system": "Hsp90α", "details": "for plasma Hsp90α at baseline versus after sorafenib alone: day -14 versus day -1, 14 day run in of daily oral sorafenib", "procedure": "Human and xenograft plasma samples of 10 μL were added to sample diluent buffer and assayed in duplicate in the antibody-coated 96-well plate. After incubation at room temperature for one hour, wells were washed 6 times with washing buffer. 100 uL HRP conjugate was added to wells and incubated for one hour. Wells were washed 6 times, 100 uL TMB substrate was added to each well, and the plate was incubated for 20 minutes. Absorbance was measured at 450 nm on a plate reader."}, "MEXF276 xenograft model": {"system": "MEXF276 xenograft model", "details": "60 mg/kg/day i.p. on days 1-5 and 8-12; cited from earlier work"}, "[6]": {"details": "nude mice, days 1-4, 15-18 i.p.; cited from earlier work"}},
  "note": "Like-named read-outs stand apart in the source and are kept apart here.",
  "data": [
    {"smiles": "COC1=C2C[C@@H](C)C[C@H](OC)[C@H](O)[C@@H](C)/C=C(\\C)[C@H](OC(N)=O)[C@@H](OC)/C=C\\C=C(/C)C(=O)NC(=CC1=O)C2=O", "note": "[Geldanamycin]", "values": [
      {"measurement": "hepatotoxicity", "setting": "[1]", "value": "severe hepatotoxicity"}
    ]},
    {"smiles": "C=CCNC1=C2C[C@@H](C)C[C@H](OC)[C@H](O)[C@@H](C)/C=C(\\C)[C@H](OC(N)=O)[C@@H](OC)/C=C\\C=C(/C)C(=O)NC(=CC1=O)C2=O", "note": "[17AAG, 17-allylamino, 17-demethoxygeldanamycin]", "values": [
      {"measurement": "Hsp90α and Hsp90β detected in the medium", "setting": "MEXF276L cells [2]", "value": "increased detection of Hsp90α but not Hsp90β in the medium"},
      {"measurement": "form of extracellular MMP2", "setting": "MEXF276L cells [2]", "value": "shift of the extracellular localized MMP2 from the fully active 66 kd form to the 72 kd latent form"},
      {"measurement": "localization of Hsp90α and Hsp90β", "setting": "MEXF276L cells [3]", "value": "Hsp90α is lost at 2-24 hrs"},
      {"measurement": "apoptotic cell debris (sub G1 fraction) compared to control cells", "setting": "MEXF276L cells [4]", "value": "only seen at 48 hrs"},
      {"measurement": "cytoplasmic Hsp90 level", "setting": "[5]", "value": "loss of cytoplasmic Hsp90"},
      {"measurement": "plasma Hsp90α after treatment versus pre 17-AAG", "setting": "MEXF276L xenografts", "value": "increase in plasma Hsp90α in most cases"},
      {"measurement": "evidence of clinical response in patients with increase in plasma Hsp90α", "setting": "Hsp90α; after 17AAG administration, shrinkage in 2/3, CT attenuation consistent with tumor necrosis in 1 of 3", "value": "3/3"},
      {"measurement": "induction of plasma Hsp90α, pre (day -1) versus post (72 hrs, day 4) treatment", "setting": "Hsp90α; cancer patients, p=0.0287", "value": "induction is significant"},
      {"measurement": "patients with increase in plasma Hsp90α", "setting": "Hsp90α; day four, 72 hrs after first 17AAG dose, after 14 day sorafenib run in", "value": "3 of 7"},
      {"measurement": "growth inhibition compared to control", "setting": "MEXF276 xenograft model", "value": 92, "unit": "%"},
      {"measurement": "time of actual tumor remissions", "setting": "MEXF276 xenograft model", "value": "10 to 17", "unit": "days"},
      {"measurement": "tolerability", "setting": "MEXF276 xenograft model", "value": "well tolerated (no animal death)"}
    ]},
    {"smiles": "CNC(=O)c1cc(Oc2ccc(NC(=O)Nc3ccc(Cl)c(C(F)(F)F)c3)cc2)ccn1", "note": "[sorafenib]", "values": [
      {"measurement": "plasma Hsp90α at baseline versus after sorafenib alone", "setting": "Hsp90α", "value": "little difference in plasma Hsp90α"},
      {"measurement": "plasma Hsp90α at baseline versus after sorafenib alone", "setting": "Hsp90α; listed as Bay 43-9006", "value": "no effects on Hsp90α"}
    ]},
    {"smiles": "CN(C)/N=N/c1[nH]cnc1C(N)=O", "note": "[DTIC]", "values": [
      {"measurement": "maximal tolerated dose", "setting": "[6]", "value": 70, "unit": "mg/kg/day"}
    ]}
  ]
}
